Where two headings read alike, the source gives them in different places.
Experiments:
[1] = test system: Key Broadleaf Weed and Crop Species; assay: Post-emergent Test II herbicidal activity (Table 5); type: in vivo; conditions: post-emergence, 336 h, post-emergent, 14 days after application; for pest or weed control at 70 g/ha: 70 g ai/ha; for pest or weed control at 140 g/ha: 140 g ai/ha
How it was run: (§1)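 Visual injury ratings (0 = no injury, 100 = complete kill) were taken 14 d after treatment, relative to untreated plants. Seedlings at the first–second true leaf stage received overhead spray at 187 L/ha; the highest rate was serially diluted to ½×, ¼×, ⅛× and 1/16×.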

[2] = test system: Key Grass and Sedge Weeds as well as Grass Crops; assay: Post-emergent Test II herbicidal activity (Table 6); type: in vivo; conditions: post-emergence, 336 h; for pest or weed control at 70 g/ha: application rate 70 g ai/ha; for pest or weed control at 140 g/ha: application rate 140 g ai/ha
How it was run: as §1

[3] = ABUTH: velvetleaf (Abutilon theophrasti), read-out: Visual Growth Reduction (%) 14 Days After Application ABUTH
[4] = AMARE: redroot pigweed (Amaranthus retroflexus), read-out: Visual Growth Reduction (%) 14 Days After Application AMARE
[5] = BRSNN: oilseed-rape, canola (Brassica napus), read-out: Visual Growth Reduction (%) 14 Days After Application BRSNN
[6] = CHEAL: lambsquarters (Chenopodium album), read-out: Visual Growth Reduction (%) 14 Days After Application CHEAL
[7] = EPHHL: wild poinsettia (Euphorbia heterophylla), read-out: Visual Growth Reduction (%) 14 Days After Application EPHHL
[8] = HELAN: sunflower (Helianthus annuus), read-out: Visual Growth Reduction (%) 14 Days After Application HELAN
[9] = VIOTR: wild pansy (Viola tricolor), read-out: Visual Growth Reduction (%) 14 Days After Application VIOTR
[10] = Triticum aestivum, TRZSS (wheat), read-out: Visual Growth Reduction (%) 14 Days After Application, TRZSS
[11] = CYPES: yellow nutsedge (Cyperus esculentus), read-out: Visual Growth Reduction (%) 14 Days After Application, CYPES
[12] = DIGSA: crabgrass (Digitaria sanguinalis), read-out: Visual Growth Reduction (%) 14 Days After Application, DIGSA
[13] = ECHCG: barnyardgrass (Echinochloa crus-galli), read-out: Visual Growth Reduction (%) 14 Days After Application, ECHCG
[14] = ORYSA: rice (Oryza sativa), read-out: Visual Growth Reduction (%) 14 Days After Application, ORYSA
[15] = SETFA: giant foxtail (Setaria faberi), read-out: Visual Growth Reduction (%) 14 Days After Application, SETFA
[16] = SORVU: grain sorghum (Sorghum vulgare), read-out: Visual Growth Reduction (%) 14 Days After Application, SORVU
[17] = ZEAMX: maize, corn (Zea mays), read-out: Visual Growth Reduction (%) 14 Days After Application, ZEAMX

| SMILES | pest or weed control at 70 g/ha [1, 3] | pest or weed control at 140 g/ha [1, 3] | pest or weed control at 70 g/ha [1, 4] | pest or weed control at 140 g/ha [1, 4] | pest or weed control at 70 g/ha [1, 5] | pest or weed control at 140 g/ha [1, 5] | pest or weed control at 70 g/ha [1, 6] | pest or weed control at 140 g/ha [1, 6] | pest or weed control at 70 g/ha [1, 7] | pest or weed control at 140 g/ha [1, 7] | pest or weed control at 70 g/ha [1, 8] | pest or weed control at 140 g/ha [1, 8] | pest or weed control at 70 g/ha [1, 9] | pest or weed control at 140 g/ha [1, 9] | pest or weed control at 70 g/ha [2, 10] | pest or weed control at 140 g/ha [2, 10] | pest or weed control at 70 g/ha [2, 11] | pest or weed control at 140 g/ha [2, 11] | pest or weed control at 70 g/ha [2, 12] | pest or weed control at 140 g/ha [2, 12] | other results |
| --- | --- | --- | --- | --- | --- | --- | --- | --- | --- | --- | --- | --- | --- | --- | --- | --- | --- | --- | --- | --- | --- |
| C=Cc1c(C(=O)O)nc(-c2ccc(C(F)(F)F)c(F)c2F)c(F)c1N [Compound 61] | 85 to 94% | 95 to 100% | 95 to 100% | 95 to 100% | 0 to 29% | 0 to 29% | 75 to 84% | 85 to 94% | 95 to 100% | 95 to 100% | 95 to 100% | 95 to 100% | 0 to 29% | 0 to 29% | 30 to 44% | 30 to 44% | 45 to 59% | 45 to 59% | 0 to 29% | 0 to 29% | pest or weed control at 70 g/ha [2, 13]: 45 to 59%; pest or weed control at 140 g/ha [2, 13]: 60 to 74%; pest or weed control at 70 g/ha [2, 14]: 0 to 29%; pest or weed control at 140 g/ha [2, 14]: 0 to 29%; pest or weed control at 70 g/ha [2, 15]: 0 to 29%; pest or weed control at 140 g/ha [2, 15]: 0 to 29%; pest or weed control at 70 g/ha [2, 16]: 45 to 59%; pest or weed control at 140 g/ha [2, 16]: 60 to 74%; pest or weed control at 70 g/ha [2, 17]: 60 to 74%; pest or weed control at 140 g/ha [2, 17]: 60 to 74% |
| COC(=O)c1nc(-c2ccc(I)c(F)c2)cc(N)c1Cl [Compound 66, methyl 4-amino-3-chloro-6-(3-fluoro-4-iodophenyl)picolinate] | 85 to 94% | 85 to 94% | 95 to 100% | 95 to 100% | 45 to 59% | 45 to 59% | 85 to 94% | 85 to 94% | 95 to 100% | 95 to 100% | 85 to 94% | 85 to 94% | 0 to 29% | 0 to 29% | 0 to 29% | 0 to 29% | 45 to 59% | 95 to 100% | 60 to 74% | 60 to 74% | pest or weed control at 70 g/ha [2, 13]: 0 to 29%; pest or weed control at 140 g/ha [2, 13]: 60 to 74%; pest or weed control at 70 g/ha [2, 14]: 0 to 29%; pest or weed control at 140 g/ha [2, 14]: 0 to 29%; pest or weed control at 70 g/ha [2, 15]: 0 to 29%; pest or weed control at 140 g/ha [2, 15]: 0 to 29%; pest or weed control at 70 g/ha [2, 16]: 75 to 84%; pest or weed control at 140 g/ha [2, 16]: 85 to 94%; pest or weed control at 70 g/ha [2, 17]: 0 to 29%; pest or weed control at 140 g/ha [2, 17]: 0 to 29% |
| Nc1c(F)c(-c2cc(F)c(I)cc2F)nc(C(=O)O)c1Cl [Compound 69] | 85 to 94% | 85 to 94% | 95 to 100% | 95 to 100% | 95 to 100% | 95 to 100% | 95 to 100% | 95 to 100% | 95 to 100% | 95 to 100% | 95 to 100% | 95 to 100% | 95 to 100% | 95 to 100% | 60 to 74% | 85 to 94% | 45 to 59% | 95 to 100% | 95 to 100% | 95 to 100% | pest or weed control at 70 g/ha [2, 13]: 95 to 100%; pest or weed control at 140 g/ha [2, 13]: 95 to 100%; pest or weed control at 70 g/ha [2, 14]: 0 to 29%; pest or weed control at 140 g/ha [2, 14]: 0 to 29%; pest or weed control at 70 g/ha [2, 15]: 95 to 100%; pest or weed control at 140 g/ha [2, 15]: 95 to 100%; pest or weed control at 70 g/ha [2, 16]: 95 to 100%; pest or weed control at 140 g/ha [2, 16]: 95 to 100%; pest or weed control at 70 g/ha [2, 17]: 75 to 84%; pest or weed control at 140 g/ha [2, 17]: 75 to 84% |

Reference: patent publication US9113629B2, “4-amino-6-(4-substituted-phenyl)-picolinates and 6-amino-2-(4-substituted-phenyl)-pyrimidine-4-carboxylates and their use as herbicides” (DOW AGROSCIENCES LLC, priority 2013, dated 2015)
